According to patent publication US10947289B2, “Glyco-modified atrial natriuretic peptide” (priority 2013, dated 2021):

The molecules below were run against T1, human GC-A (Homo sapiens, UniProt P16066) (assay: cGMP elevating activity in CHO/human GC-A cells (Test Example 1)).
T1 construct: expressed in transfected cells; host or cells: CHO cells
T1 sequence (P16066 33-1061): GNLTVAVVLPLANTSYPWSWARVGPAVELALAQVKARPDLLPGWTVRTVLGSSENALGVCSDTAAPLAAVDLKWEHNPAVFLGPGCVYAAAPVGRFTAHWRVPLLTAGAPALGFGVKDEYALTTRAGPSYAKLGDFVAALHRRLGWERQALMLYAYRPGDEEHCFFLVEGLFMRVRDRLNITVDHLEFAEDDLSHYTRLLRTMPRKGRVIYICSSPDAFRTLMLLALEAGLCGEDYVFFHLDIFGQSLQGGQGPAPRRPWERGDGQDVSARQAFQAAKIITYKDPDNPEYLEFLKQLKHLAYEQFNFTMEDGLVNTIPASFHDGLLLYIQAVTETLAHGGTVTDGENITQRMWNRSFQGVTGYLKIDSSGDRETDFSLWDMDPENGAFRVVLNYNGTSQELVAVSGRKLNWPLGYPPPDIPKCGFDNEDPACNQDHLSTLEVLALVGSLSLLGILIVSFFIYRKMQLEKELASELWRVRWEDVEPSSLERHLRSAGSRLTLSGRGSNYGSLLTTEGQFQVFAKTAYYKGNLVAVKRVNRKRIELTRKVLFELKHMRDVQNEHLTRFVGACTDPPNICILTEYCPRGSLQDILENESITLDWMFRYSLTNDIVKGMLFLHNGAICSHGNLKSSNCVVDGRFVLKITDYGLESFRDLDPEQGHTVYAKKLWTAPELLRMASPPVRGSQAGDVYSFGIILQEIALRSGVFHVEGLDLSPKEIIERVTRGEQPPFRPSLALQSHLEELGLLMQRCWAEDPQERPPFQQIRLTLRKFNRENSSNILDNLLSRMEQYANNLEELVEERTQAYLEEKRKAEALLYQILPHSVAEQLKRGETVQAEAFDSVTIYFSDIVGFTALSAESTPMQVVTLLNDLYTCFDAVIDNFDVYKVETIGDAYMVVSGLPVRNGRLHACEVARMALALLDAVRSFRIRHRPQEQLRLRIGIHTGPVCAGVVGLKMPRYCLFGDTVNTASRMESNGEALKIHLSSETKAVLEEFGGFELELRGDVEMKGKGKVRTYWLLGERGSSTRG
Type: cell-based
Method: The cGMP elevating activity of each modified peptide prepared in Example 2 was measured by the following method:
CHO/human GC-A cells, which are CHO cells constitutively expressing human GC-A, were suspended at 2×10^5 cells/ml in α-MEM, 10% FBS, and 1% penicillin-streptomycin, inoculated at 20 μl/well (4×10^3 cells/well) onto a 384-well plate (Corning, 3826), and cultured overnight in a CO2 incubator. On the next day, the medium was removed from this plate, and then, 1.6 mM IBMX/KRB buffer was added thereto at 10 μl/well. The mixture was stirred on a plate shaker and then incubated at room temperature for 10 minutes. […] The mixture was stirred on a plate shaker and then incubated for 15 minutes in a CO2 incubator. Thereafter, a lysis buffer (50 mM phosphate buffer, pH 7.0, and 1% Triton X-100) was added thereto at 5 μl/well. The cells were lysed by stirring for 10 minutes on a plate shaker. Subsequently, the cGMP levels in the cell lysates were measured by use of a cGMP kit (manufactured by Cisbio Bioassays). Specifically, to a 384-well plate (Greiner, 784076), 5 μl/well of a diluent attached to the kit, 5 μl/well of the cell lysate, 5 μl/well of cGMP-d2, and 5 μl/well of anti cGMP-Cryptate were added. The mixture was stirred on a plate shaker and then incubated overnight at 4° C. in the dark, followed by the measurement of homogeneous time-resolved fluorescence using RubyStar (manufactured by BMG LABTECH JAPAN Ltd.). The activity value (T/C) of the test substance at each concentration was calculated when the activity value of a well supplemented with only a solvent was defined as 0 and the activity value of a well supplemented with 1 nM ANP was defined as 1.
Work on `CC[C@H](C)[C@@H]1NC(=O)[C@H](CCCNC(=N)N)NC(=O)[C@H](CC(=O)O)NC(=O)[C@H](CCSC)NC(=O)[C@H](CCCNC(=N)N)NC(=O)CNC(=O)CNC(=O)[C@H](Cc2ccccc2)NC(=O)[C@@H](NC(=O)[C@H](CO)NC(=O)[C@H](CO)NC(=O)[C@H](CCCNC(=N)N)NC(=O)[C@H](CCCNC(=N)N)NC(=O)[C@H](CC(C)C)NC(=O)[C@H](CO)NC(=O)CCOCCOCCOCCOCCNC(=O)[C@H](CC(=O)N[C@@H]2O[C@H](CO)[C@@H](O[C@@H]3O[C@H](CO)[C@@H](O[C@@H]4O[C@H](CO[C@H]5O[C@H](CO)[C@@H](O)[C@H](O)[C@@H]5O[C@@H]5O[C@H](CO)[C@@H](O[C@@H]6O[C@H](CO)[C@H](O)[C@H](O)[C@H]6O)[C@H](O)[C@H]5NC(C)=O)[C@@H](O)[C@H](O[C@H]5O[C@H](CO)[C@@H](O)[C@H](O)[C@@H]5O[C@@H]5O[C@H](CO)[C@@H](O[C@@H]6O[C@H](CO)[C@H](O)[C@H](O)[C@H]6O)[C@H](O)[C@H]5NC(C)=O)[C@@H]4O)[C@H](O)[C@H]3NC(C)=O)[C@H](O)[C@H]2NC(C)=O)NC(=O)CO[C@@H]2O[C@H](CO)[C@@H](O[C@@H]3O[C@H](CO)[C@@H](O[C@@H]4O[C@H](CO[C@H]5O[C@H](CO)[C@@H](O)[C@H](O)[C@@H]5O[C@@H]5O[C@H](CO)[C@@H](O[C@@H]6O[C@H](CO)[C@H](O)[C@H](O)[C@H]6O)[C@H](O)[C@H]5NC(C)=O)[C@@H](O)[C@H](O[C@H]5O[C@H](CO)[C@@H](O)[C@H](O)[C@@H]5O[C@@H]5O[C@H](CO)[C@@H](O[C@@H]6O[C@H](CO)[C@H](O)[C@H](O)[C@H]6O)[C@H](O)[C@H]5NC(C)=O)[C@@H]4O)[C@H](O)[C@H]3NC(C)=O)[C@H](O)[C@H]2NC(C)=O)CSSC[C@@H](C(=O)N[C@@H](CC(N)=O)C(=O)N[C@@H](CO)C(=O)N[C@@H](Cc2ccccc2)C(=O)N[C@@H](CCCNC(=N)N)C(=O)N[C@@H](Cc2ccc(O)cc2)C(=O)O)NC(=O)CNC(=O)[C@H](CC(C)C)NC(=O)CNC(=O)[C@H](CO)NC(=O)[C@H](CCC(N)=O)NC(=O)[C@H](C)NC(=O)CNC1=O` [Compound 2-21, AG(9)-(AG(9)-)Asn-PEG(3)-hANP(1-28)] yielded an EC50 of 0.097 nM. `CC[C@H](C)[C@@H]1NC(=O)[C@H](CCCNC(=N)N)NC(=O)[C@H](CC(=O)O)NC(=O)[C@H](CCSC)NC(=O)[C@H](CCCNC(=N)N)NC(=O)CNC(=O)CNC(=O)[C@H](Cc2ccccc2)NC(=O)[C@@H](NC(=O)[C@H](CO)NC(=O)[C@H](CO)NC(=O)[C@H](CCCNC(=N)N)NC(=O)[C@H](CCCNC(=N)N)NC(=O)[C@H](CC(C)C)NC(=O)[C@H](CO)NC(=O)CCOCCOCCOCCOCCNC(=O)[C@H](CC(=O)N[C@@H]2O[C@H](CO)[C@@H](O[C@@H]3O[C@H](CO)[C@@H](O[C@@H]4O[C@H](CO[C@H]5O[C@H](CO)[C@@H](O)[C@H](O)[C@@H]5O[C@@H]5O[C@H](CO)[C@@H](O)[C@H](O)[C@H]5NC(C)=O)[C@@H](O)[C@H](O[C@H]5O[C@H](CO)[C@@H](O)[C@H](O)[C@@H]5O[C@@H]5O[C@H](CO)[C@@H](O)[C@H](O)[C@H]5NC(C)=O)[C@@H]4O)[C@H](O)[C@H]3NC(C)=O)[C@H](O)[C@H]2NC(C)=O)NC(=O)CO[C@@H]2O[C@H](CO)[C@@H](O[C@@H]3O[C@H](CO)[C@@H](O[C@@H]4O[C@H](CO[C@H]5O[C@H](CO)[C@@H](O)[C@H](O)[C@@H]5O[C@@H]5O[C@H](CO)[C@@H](O)[C@H](O)[C@H]5NC(C)=O)[C@@H](O)[C@H](O[C@H]5O[C@H](CO)[C@@H](O)[C@H](O)[C@@H]5O[C@@H]5O[C@H](CO)[C@@H](O)[C@H](O)[C@H]5NC(C)=O)[C@@H]4O)[C@H](O)[C@H]3NC(C)=O)[C@H](O)[C@H]2NC(C)=O)CSSC[C@@H](C(=O)N[C@@H](CC(N)=O)C(=O)N[C@@H](CO)C(=O)N[C@@H](Cc2ccccc2)C(=O)N[C@@H](CCCNC(=N)N)C(=O)N[C@@H](Cc2ccc(O)cc2)C(=O)O)NC(=O)CNC(=O)[C@H](CC(C)C)NC(=O)CNC(=O)[C@H](CO)NC(=O)[C@H](CCC(N)=O)NC(=O)[C@H](C)NC(=O)CNC1=O` [Compound 2-22, AG(7)-(AG(7)-)Asn-PEG(3)-hANP(1-28)] was tested, and the EC50 was 0.08 nM. With `CC[C@H](C)[C@@H]1NC(=O)[C@H](CCCNC(=N)N)NC(=O)[C@H](CC(=O)O)NC(=O)[C@H](CCSC)NC(=O)[C@H](CCCNC(=N)N)NC(=O)CNC(=O)CNC(=O)[C@H](Cc2ccccc2)NC(=O)[C@@H](NC(=O)[C@H](CO)NC(=O)[C@H](CO)NC(=O)[C@H](CCCNC(=N)N)NC(=O)[C@H](CCCNC(=N)N)NC(=O)[C@H](CC(C)C)NC(=O)[C@H](CO)NC(=O)CCOCCOCCOCCOCCNC(=O)CO[C@@H]2O[C@H](CO)[C@@H](O[C@@H]3O[C@H](CO)[C@@H](O[C@@H]4O[C@H](CO[C@H]5O[C@H](CO)[C@@H](O)[C@H](O)[C@@H]5O[C@@H]5O[C@H](CO)[C@@H](O[C@@H]6O[C@H](CO[C@]7(C(=O)O)C[C@H](O)[C@@H](NC(C)=O)[C@H]([C@H](O)[C@H](O)CO)O7)[C@H](O)[C@H](O)[C@H]6O)[C@H](O)[C@H]5NC(C)=O)[C@@H](O)[C@H](O[C@H]5O[C@H](CO)[C@@H](O)[C@H](O)[C@@H]5O[C@@H]5O[C@H](CO)[C@@H](O[C@@H]6O[C@H](CO[C@]7(C(=O)O)C[C@H](O)[C@@H](NC(C)=O)[C@H]([C@H](O)[C@H](O)CO)O7)[C@H](O)[C@H](O)[C@H]6O)[C@H](O)[C@H]5NC(C)=O)[C@@H]4O)[C@H](O)[C@H]3NC(C)=O)[C@H](O)[C@H]2NC(C)=O)CSSC[C@@H](C(=O)N[C@@H](CC(N)=O)C(=O)N[C@@H](CO)C(=O)N[C@@H](Cc2ccccc2)C(=O)N[C@@H](CCCNC(=N)N)C(=O)N[C@@H](Cc2ccc(O)cc2)C(=O)NCCOCCOCCOCCOCCC(=O)NCCO[C@@H]2O[C@H](CO)[C@@H](O[C@@H]3O[C@H](CO)[C@@H](O[C@@H]4O[C@H](CO[C@H]5O[C@H](CO)[C@@H](O)[C@H](O)[C@@H]5O[C@@H]5O[C@H](CO)[C@@H](O[C@@H]6O[C@H](CO[C@]7(C(=O)O)C[C@H](O)[C@@H](NC(C)=O)[C@H]([C@H](O)[C@H](O)CO)O7)[C@H](O)[C@H](O)[C@H]6O)[C@H](O)[C@H]5NC(C)=O)[C@@H](O)[C@H](O[C@H]5O[C@H](CO)[C@@H](O)[C@H](O)[C@@H]5O[C@@H]5O[C@H](CO)[C@@H](O[C@@H]6O[C@H](CO[C@]7(C(=O)O)C[C@H](O)[C@@H](NC(C)=O)[C@H]([C@H](O)[C@H](O)CO)O7)[C@H](O)[C@H](O)[C@H]6O)[C@H](O)[C@H]5NC(C)=O)[C@@H]4O)[C@H](O)[C@H]3NC(C)=O)[C@H](O)[C@H]2NC(C)=O)NC(=O)CNC(=O)[C@H](CC(C)C)NC(=O)CNC(=O)[C@H](CO)NC(=O)[C@H](CCC(N)=O)NC(=O)[C@H](C)NC(=O)CNC1=O` [Compound 2-24, SG-PEG(3)-hANP(1-28)-PEG(3)-SG] the EC50 was 0.54 nM.
